Test results: the supplement of paper PMC10307832

How the values were obtained:
Test in all cases: relative viability (nuclei count vs DMSO), 5 days (fraction); higher = more cells survive
201T = system: 201T
Procedure, shortened: (§1)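 Each reported value is a median over duplicate plates. It expresses relative viability: treated-well nuclei count divided by vehicle-well nuclei count. Lung cancer cell lines in 1536-well plates were dosed by pin tool a day after seeding, alone with one drug or with a fixed anchor-drug dose plus five library-drug doses (not always all listed) in √10 steps, and nuclei were counted after 5 days.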

COR-L23 = system: COR-L23
Procedure, shortened: as §1

EPLC-272H = system: EPLC-272H
Procedure, shortened: as §1

H3255 = system: H3255
Procedure, shortened: as §1

HCC-15 = system: HCC-15
Procedure, shortened: as §1

LOU-NH91 = system: LOU-NH91
Procedure, shortened: as §1

NCI-H1563 = system: NCI-H1563
Procedure, shortened: as §1

NCI-H1650 = system: NCI-H1650
Procedure, shortened: as §1

NCI-H1734 = system: NCI-H1734
Procedure, shortened: as §1

NCI-H1793 = system: NCI-H1793
Procedure, shortened: as §1

NCI-H2023 = system: NCI-H2023
Procedure, shortened: as §1

NCI-H2170 = system: NCI-H2170
Procedure, shortened: as §1

NCI-H2347 = system: NCI-H2347
Procedure, shortened: as §1

NCI-H2405 = system: NCI-H2405
Procedure, shortened: as §1

NCI-H3122 = system: NCI-H3122
Procedure, shortened: as §1

NCI-H322M = system: NCI-H322M
Procedure, shortened: as §1

NCI-H441 = system: NCI-H441
Procedure, shortened: as §1

NCI-H520 = system: NCI-H520
Procedure, shortened: as §1

NCI-H647 = system: NCI-H647
Procedure, shortened: as §1

PC-14 = system: PC-14
Procedure, shortened: as §1

UMC-11 = system: UMC-11
Procedure, shortened: as §1

**Q.** Which results are given for COc1nc(C)cnc1NS(=O)(=O)c1cccnc1-c1ccc(-c2nnco2)cc1 [Zibotentan] + CS(=O)(=O)N1CCN(Cc2cc3nc(-c4cccc5[nH]ncc45)nc(N4CCOCC4)c3s2)CC1 [Pictilisib] (partner 1 µM)?
**A.** relative viability (201T; first compound 0.08 µM): 0.725; relative viability (201T; first compound 0.253 µM): 0.599; relative viability (201T; first compound 0.8 µM): 0.628; relative viability (201T; first compound 2.53 µM): 0.711; relative viability (COR-L23; first compound 0.08 µM): 0.728; relative viability (COR-L23; first compound 0.253 µM): 0.662; relative viability (COR-L23; first compound 0.8 µM): 0.757; relative viability (COR-L23; first compound 2.53 µM): 0.921; relative viability (EPLC-272H; first compound 0.08 µM): 0.363; relative viability (EPLC-272H; first compound 0.253 µM): 0.289; relative viability (EPLC-272H; first compound 0.8 µM): 0.239; relative viability (EPLC-272H; first compound 2.53 µM): 0.297; relative viability (H3255; first compound 0.08 µM): 0.467; relative viability (H3255; first compound 0.253 µM): 0.485; relative viability (H3255; first compound 0.8 µM): 0.467; relative viability (H3255; first compound 2.53 µM): 0.549; relative viability (HCC-15; first compound 0.08 µM): 0.763; relative viability (HCC-15; first compound 0.253 µM): 0.667; relative viability (HCC-15; first compound 0.8 µM): 0.687; relative viability (HCC-15; first compound 2.53 µM): 0.817; relative viability (LOU-NH91; first compound 0.08 µM): 0.497; relative viability (LOU-NH91; first compound 0.253 µM): 0.468; relative viability (LOU-NH91; first compound 0.8 µM): 0.515; relative viability (LOU-NH91; first compound 2.53 µM): 0.54; relative viability (NCI-H1563; first compound 0.08 µM): 0.635; relative viability (NCI-H1563; first compound 0.253 µM): 0.594; relative viability (NCI-H1563; first compound 0.8 µM): 0.652; relative viability (NCI-H1563; first compound 2.53 µM): 0.639; relative viability (NCI-H1650; first compound 0.08 µM): 0.675; relative viability (NCI-H1650; first compound 0.8 µM): 0.638; relative viability (NCI-H1650; first compound 2.53 µM): 0.658; relative viability (NCI-H1734; first compound 0.08 µM): 0.516; relative viability (NCI-H1734; first compound 0.253 µM): 0.442; relative viability (NCI-H1734; first compound 0.8 µM): 0.461; relative viability (NCI-H1734; first compound 2.53 µM): 0.43; relative viability (NCI-H1793; first compound 0.08 µM): 0.429; relative viability (NCI-H1793; first compound 0.253 µM): 0.306; relative viability (NCI-H1793; first compound 0.8 µM): 0.391; relative viability (NCI-H1793; first compound 2.53 µM): 0.345; relative viability (NCI-H2023; first compound 0.08 µM): 0.279; relative viability (NCI-H2023; first compound 0.253 µM): 0.127; relative viability (NCI-H2023; first compound 0.8 µM): 0.226; relative viability (NCI-H2023; first compound 2.53 µM): 0.26; relative viability (NCI-H2170; first compound 0.08 µM): 0.282; relative viability (NCI-H2170; first compound 0.253 µM): 0.295; relative viability (NCI-H2170; first compound 0.8 µM): 0.316; relative viability (NCI-H2170; first compound 2.53 µM): 0.368; relative viability (NCI-H2347; first compound 0.08 µM): 0.601; relative viability (NCI-H2347; first compound 0.253 µM): 0.547; relative viability (NCI-H2347; first compound 0.8 µM): 0.621; relative viability (NCI-H2347; first compound 2.53 µM): 0.769; relative viability (NCI-H2405; first compound 0.08 µM): 0.441; relative viability (NCI-H2405; first compound 0.253 µM): 0.339; relative viability (NCI-H2405; first compound 0.8 µM): 0.473; relative viability (NCI-H2405; first compound 2.53 µM): 0.481; relative viability (NCI-H3122; first compound 0.08 µM): 0.568; relative viability (NCI-H3122; first compound 0.253 µM): 0.519; relative viability (NCI-H3122; first compound 0.8 µM): 0.576; relative viability (NCI-H3122; first compound 2.53 µM): 0.539; relative viability (NCI-H322M; first compound 0.08 µM): 0.521; relative viability (NCI-H322M; first compound 0.253 µM): 0.559; relative viability (NCI-H322M; first compound 0.8 µM): 0.533; relative viability (NCI-H322M; first compound 2.53 µM): 0.506; relative viability (NCI-H441; first compound 0.08 µM): 0.518; relative viability (NCI-H441; first compound 0.253 µM): 0.39; relative viability (NCI-H441; first compound 0.8 µM): 0.545; relative viability (NCI-H441; first compound 2.53 µM): 0.632; relative viability (NCI-H520; first compound 0.08 µM): 0.336; relative viability (NCI-H520; first compound 0.253 µM): 0.233; relative viability (NCI-H520; first compound 0.8 µM): 0.311; relative viability (NCI-H520; first compound 2.53 µM): 0.316; relative viability (NCI-H647; first compound 0.08 µM): 0.391; relative viability (NCI-H647; first compound 0.253 µM): 0.355; relative viability (NCI-H647; first compound 0.8 µM): 0.41; relative viability (NCI-H647; first compound 2.53 µM): 0.388; relative viability (PC-14; first compound 0.08 µM): 0.91; relative viability (PC-14; first compound 0.253 µM): 0.8; relative viability (PC-14; first compound 0.8 µM): 0.793; relative viability (PC-14; first compound 2.53 µM): 0.628; relative viability (UMC-11; first compound 0.08 µM): 0.746; relative viability (UMC-11; first compound 0.253 µM): 0.809; relative viability (UMC-11; first compound 0.8 µM): 0.837; relative viability (UMC-11; first compound 2.53 µM): 0.777
